Assay results as given in publication PMC3640414 (Journal of Medicinal Chemistry, 2013).

What was measured:
[1] = system: H1975 (lung adenocarcinoma) cells; assay: MTS cytotoxicity assay, H1975 cells; format: cell-based; conditions: 100 μM, 72 h
Description: (§1) We also investigated the effects of 8 and 9 in two lung adenocarcinoma cell lines, A549 and H1975. […] H1975 appeared to be somewhat more sensitive to these compounds, a finding confirmed by a clonogenic survival assay (Supporting Information Figure S5).
(§2) Viability of MV4;11, H549, and H1975 cells was monitored by MTS-based CellTiter 96 AQueous nonradioactive cell proliferation assay (Promega, Madison, WI). Viability of U2OS and HeLa cells was monitored by WST-based cell proliferation kit (Roche, Mannheim, Germany). Further details are provided in Supporting Information

[2] = system: A549 (lung adenocarcinoma) cells; assay: MTS cytotoxicity assay, A549 cells; format: cell-based; conditions: 100 μM, 72 h
Description: as §1, §2

BRD4(1) = target: T1, BRD4(1) (Homo sapiens, UniProt O60885); assay: AlphaScreen peptide displacement assay (ALPHA), BRD4(1); format: binding
T1 construct: amplify the N-terminal bromodomain region of the protein; made in house

MV4;11 (AML) cells = assay: MTS cytotoxicity assay, MV4;11 cells; format: cell-based; conditions: Homo sapiens, viability after 72 h
[3] = target: bromodomain of cAMP response element binding protein (CREB) binding protein (UniProt Q92793 1081-1197); assay: AlphaScreen or HTRF; peptide displacement ALPHA assay; CREBBP bromodomain and biotinylated H3K56Ac peptide, protein and peptide concentration 200 nM (Table 1) or 50 nM (Table 2); small-molecule competitors; duplicate on the same plate; conditions: both partners purified
Chain of bromodomain of cAMP response element binding protein (CREB) binding protein (Q92793 1081-1197): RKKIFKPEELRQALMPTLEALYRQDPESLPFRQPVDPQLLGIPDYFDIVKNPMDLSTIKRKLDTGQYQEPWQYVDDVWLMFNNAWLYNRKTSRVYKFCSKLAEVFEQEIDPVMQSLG

Molecule: CC(=O)Oc1cc(-c2c(C)noc2C)cc(C(O)c2ccccc2)c1 (stereo not drawn) [Compound 9, 3-(3,5-Dimethylisoxazol-4-yl)-5-(hydroxy(phenyl)methyl)phenyl Acetate]
- effect on viability of H1975 cells [1]: markedly reduced the viability
- effect on viability of A549 cells [2]: markedly reduced the viability

Molecule: CCOc1cc(-c2c(C)noc2C)cc(C(O)c2ccccc2)c1 (stereo not drawn) [Compound 12, (3-(3,5-Dimethylisoxazol-4-yl)-5-ethoxyphenyl)(phenyl)methanol]
- selectivity for BRD4(1) over CREBBP bromodomain (BRD4(1); comparison of ALPHA IC50 values): approximately 6 fold
- ligand efficiency (BRD4(1); for BRD4(1)): 0.36

Molecule: CN1CCC(CNc2ccc3ncc(-c4cccc(OC(F)(F)F)c4)n3n2)CC1 [SGI-1176, SGI-1776]
- IC50 (MV4;11 (AML) cells): 53 nM

B1: H3K56Ac peptide (peptide)
peptide: ALREIRRYQKSTELLIRKLK
modifications: K(Ac) (acetyl-lysine) at the 10th residue (K56 of histone H3 by the peptide's name); K(biotin) at the C-terminal lysine
- binding result [3]: binds
